In ChEMBL document CHEMBL4828744, “Design, synthesis and biological evaluation of pyridinylmethylenepiperidine derivatives as potent 5-HT1F receptor agonists for migraine therapy” (Eur J Med Chem, 2021):
Activity calls are given as the source filed them. The calls are words filed in the database; no cut-off is given here.

Legend:
[1] = Cmax in Sprague-Dawley rat at 1 mg/kg, iv measured for 24 hrs by LC-MS/MS analysis; assay type: ADME, organism-based; parameters: route intravenous, dose 1 mg/kg, time 24 hrs; conditions: in vivo
[2] = tested on: Rattus norvegicus; assay: Antimigraine activity against electrical stimulation of trigeminal ganglion migraine Wistar rat model assessed as reduction in dural plasma protein extravasation at 0.01 to 0.1 ug/kg, po measured after 45 mins by confocal fluorescence microscopic analysis; assay type: functional, organism-based; conditions: dose 0.01-0.1 µg/kg
[3] = biological target: T1, 5-hydroxytryptamine receptor 1F (Homo sapiens) (UniProt P30939); assay: Potency index, ratio of lasmiditan EC50 to test compound EC50 for agonist activity at 5HT1F receptor (unknown origin) expressed in HEK293 cells measured after 60 mins by Fluo-4AM dye based FLIPR assay; assay type: functional, cell-based
T1 sequence (whole entry): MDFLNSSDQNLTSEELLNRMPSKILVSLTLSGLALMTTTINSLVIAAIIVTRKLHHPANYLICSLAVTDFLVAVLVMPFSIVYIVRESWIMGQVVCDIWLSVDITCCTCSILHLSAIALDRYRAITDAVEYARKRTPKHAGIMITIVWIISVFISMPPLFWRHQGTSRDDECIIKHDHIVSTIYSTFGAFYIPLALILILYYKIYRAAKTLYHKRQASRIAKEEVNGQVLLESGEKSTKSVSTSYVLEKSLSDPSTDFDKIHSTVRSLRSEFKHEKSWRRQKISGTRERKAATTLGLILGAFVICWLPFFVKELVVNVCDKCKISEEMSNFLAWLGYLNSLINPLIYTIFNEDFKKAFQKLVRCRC

[4] = Toxicity in ig dosed Sprague-Dawley rat administered for 28 days; assay type: organism-based; conditions: in vivo, po, time 28 day
[5] = AUC (0 to 24hrs) in Sprague-Dawley rat at 50 mg/kg, ig by LC-MS/MS analysis; assay type: ADME, organism-based; parameters: time < 24 hr, route intragastric, dose 50 mg/kg; conditions: in vivo, po
[6] = Toxicity in Sprague-Dawley rat assessed as effect on inflammatory reaction at 150 mg/kg/day, ig administered for 28 days; assay type: organism-based; conditions: in vivo, po, 672 h, time 28 day
[7] = biological target: 5-hydroxytryptamine receptor 1B (Homo sapiens, UniProt P28222); assay: Binding affinity to human 5HT1B receptor
Chain of 5-hydroxytryptamine receptor 1B (P28222 whole entry): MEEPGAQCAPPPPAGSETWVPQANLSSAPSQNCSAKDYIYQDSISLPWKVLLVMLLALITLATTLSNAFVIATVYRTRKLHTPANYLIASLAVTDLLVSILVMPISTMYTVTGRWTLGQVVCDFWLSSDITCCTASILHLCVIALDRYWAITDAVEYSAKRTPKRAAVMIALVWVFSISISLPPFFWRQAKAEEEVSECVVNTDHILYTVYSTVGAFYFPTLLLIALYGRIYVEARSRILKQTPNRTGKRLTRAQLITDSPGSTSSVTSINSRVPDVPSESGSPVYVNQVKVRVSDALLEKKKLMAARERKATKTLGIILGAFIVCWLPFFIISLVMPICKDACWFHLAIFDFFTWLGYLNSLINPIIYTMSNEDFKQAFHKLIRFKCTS

[8] = Cmax in monkey at 1 mg/kg, ig administered for 28 days by LC-MS/MS analysis; assay type: ADME, organism-based, Macaca mulatta; parameters: route intragastric, dose 1 mg/kg, time 28 day; conditions: rhesus monkey, in vivo, po
[9] = biological target: 5-hydroxytryptamine receptor 2A (Homo sapiens, UniProt P28223); assay: Binding affinity to human 5HT2A receptor
Chain of 5-hydroxytryptamine receptor 2A (P28223 whole entry): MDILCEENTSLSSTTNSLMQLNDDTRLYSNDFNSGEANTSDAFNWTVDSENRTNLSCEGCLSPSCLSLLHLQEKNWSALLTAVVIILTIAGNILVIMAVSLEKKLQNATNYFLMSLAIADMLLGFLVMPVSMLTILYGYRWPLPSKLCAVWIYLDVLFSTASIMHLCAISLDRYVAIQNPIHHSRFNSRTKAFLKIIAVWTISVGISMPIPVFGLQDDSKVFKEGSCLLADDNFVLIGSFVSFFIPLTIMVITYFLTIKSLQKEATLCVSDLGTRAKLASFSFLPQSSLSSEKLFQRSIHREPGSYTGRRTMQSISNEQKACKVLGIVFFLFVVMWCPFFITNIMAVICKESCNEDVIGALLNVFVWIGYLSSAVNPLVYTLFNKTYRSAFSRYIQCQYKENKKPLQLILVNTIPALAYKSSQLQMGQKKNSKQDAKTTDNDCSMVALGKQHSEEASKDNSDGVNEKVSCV

[10] = Toxicity in NewZealand rabbit Saphenous vein rings assessed as induction of vasoconstriction at 0.01 to 100 uM; assay type: tissue-based, Oryctolagus cuniculus; conditions: dose 0.01-100 µM
[11] = Cmax in monkey at 5 mg/kg, ig administered for 28 days by LC-MS/MS analysis; assay type: ADME, organism-based, Macaca mulatta; parameters: route intragastric, time 28 day, dose 5 mg/kg; conditions: rhesus monkey, in vivo, po
[12] = biological target: T2, 5-hydroxytryptamine receptor 1F (Homo sapiens, UniProt P30939); assay: Agonist activity at 5HT1F receptor (unknown origin) expressed in HEK293 cells measured after 60 mins by Fluo-4AM dye based FLIPR assay; assay type: functional, cell-based; conditions: read-out: IC50 (the source's name)
T2 sequence (P30939 whole entry): T1 sequence (whole entry)

[13] = Cmax in monkey at 25 mg/kg, ig administered for 28 days by LC-MS/MS analysis; assay type: ADME, organism-based, Macaca mulatta; parameters: route intragastric, dose 25 mg/kg, time 28 day; conditions: rhesus monkey, in vivo, po
[14] = AUC (0 to 24hrs) in monkey at 25 mg/kg, ig by LC-MS/MS analysis; assay type: ADME, organism-based, Macaca mulatta; parameters: time < 24 hr, route intragastric, dose 25 mg/kg; conditions: rhesus monkey, in vivo, po
[15] = organism: Homo sapiens; assay: Selectivity ratio of IC50 for human 5HT2B receptor to IC50 for human 5HT1F receptor
[16] = biological target: T3, 5-hydroxytryptamine receptor 2C (Homo sapiens, UniProt P28335); assay: Binding affinity to human 5HT2C receptor
T3 sequence (P28335 whole entry): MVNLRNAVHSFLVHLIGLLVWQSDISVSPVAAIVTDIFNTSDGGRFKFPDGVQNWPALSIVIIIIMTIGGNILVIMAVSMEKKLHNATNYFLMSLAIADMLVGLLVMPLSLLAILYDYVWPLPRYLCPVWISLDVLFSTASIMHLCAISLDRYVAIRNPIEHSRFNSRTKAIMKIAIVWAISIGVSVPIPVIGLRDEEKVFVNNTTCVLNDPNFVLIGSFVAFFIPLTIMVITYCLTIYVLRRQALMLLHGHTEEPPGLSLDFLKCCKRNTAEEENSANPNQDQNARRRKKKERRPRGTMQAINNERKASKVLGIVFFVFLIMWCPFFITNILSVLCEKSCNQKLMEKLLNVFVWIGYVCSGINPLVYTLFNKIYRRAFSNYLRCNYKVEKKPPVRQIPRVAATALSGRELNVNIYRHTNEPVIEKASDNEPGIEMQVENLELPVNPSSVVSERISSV

[17] = organism: Homo sapiens; assay: Selectivity ratio of IC50 for human 5HT2C receptor to IC50 for human 5HT1F receptor
[18] = Cmax in Sprague-Dawley rat at 50 mg/kg, ig administered for 28 days by LC-MS/MS analysis; assay type: ADME, organism-based; parameters: route intragastric, time 28 day, dose 50 mg/kg; conditions: in vivo, po
[19] = Bioavailability in Sprague-Dawley rat at 5 mg/kg, ig measured for 24 hrs by LC-MS/MS analysis; assay type: ADME, organism-based; conditions: in vivo, po
[20] = organism: Homo sapiens; assay: Selectivity ratio of IC50 for human 5HT2A receptor to IC50 for human 5HT1F receptor
[21] = Cmax in Sprague-Dawley rat at 5 mg/kg, ig measured for 24 hrs by LC-MS/MS analysis; assay type: ADME, organism-based; parameters: route intragastric, time 24 hrs, dose 5 mg/kg; conditions: in vivo, po
[22] = AUC(0 to t) in Sprague-Dawley rat at 1 mg/kg, iv measured for 24 hrs by LC-MS/MS analysis; assay type: ADME, organism-based; parameters: time 24 hrs, dose 1 mg/kg; conditions: in vivo
[23] = Volume of distribution at steady state in Sprague-Dawley rat at 1 mg/kg, iv measured for 24 hrs by LC-MS/MS analysis; assay type: ADME, organism-based; conditions: in vivo, read-out: Vdss
[24] = biological target: 5-HT1B/5-HT1F (Homo sapiens) (UniProt P30939+P28222); assay: Selectivity ratio of IC50 for human 5HT1B receptor to IC50 for human 5HT1F receptor; assay type: protein assay
Chain of 5-HT1B/5-HT1F (Homo sapiens) (P28222 whole entry, looked up, one chain of several): as the sequence (P28222 whole entry) above

[25] = biological target: 5-HT1A/5-HT1F (Homo sapiens) (UniProt P30939+P08908); assay: Selectivity ratio of IC50 for human 5HT1A receptor to IC50 for human 5HT1F receptor; assay type: protein assay
Chain of 5-HT1A/5-HT1F (Homo sapiens) (P08908 whole entry, looked up, one chain of several): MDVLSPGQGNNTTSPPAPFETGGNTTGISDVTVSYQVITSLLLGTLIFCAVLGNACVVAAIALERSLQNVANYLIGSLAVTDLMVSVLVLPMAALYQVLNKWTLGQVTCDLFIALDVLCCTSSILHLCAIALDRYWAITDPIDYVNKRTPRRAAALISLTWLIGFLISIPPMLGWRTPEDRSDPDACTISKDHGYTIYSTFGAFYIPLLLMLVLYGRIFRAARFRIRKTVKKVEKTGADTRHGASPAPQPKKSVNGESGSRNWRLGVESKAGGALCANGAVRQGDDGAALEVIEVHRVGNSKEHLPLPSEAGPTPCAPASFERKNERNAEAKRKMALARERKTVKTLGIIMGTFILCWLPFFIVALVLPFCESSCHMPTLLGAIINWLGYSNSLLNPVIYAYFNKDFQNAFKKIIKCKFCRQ

[26] = AUC (0 to 24hrs) in monkey at 1 mg/kg, ig by LC-MS/MS analysis; assay type: ADME, organism-based, Macaca mulatta; parameters: time < 24 hr, route intragastric, dose 1 mg/kg; conditions: rhesus monkey, in vivo, po
[27] = Half life in Sprague-Dawley rat at 5 mg/kg, ig measured for 24 hrs by LC-MS/MS analysis; assay type: ADME, organism-based; conditions: in vivo, po
[28] = Cmax in Sprague-Dawley rat at 150 mg/kg, ig administered for 28 days by LC-MS/MS analysis; assay type: ADME, organism-based; parameters: route intragastric, dose 150 mg/kg, time 28 day; conditions: in vivo, po
[29] = AUC(0 to t) in Sprague-Dawley rat at 5 mg/kg, ig measured for 24 hrs by LC-MS/MS analysis; assay type: ADME, organism-based; parameters: time 24 hrs, dose 5 mg/kg; conditions: in vivo, po
[30] = Half life in Sprague-Dawley rat at 1 mg/kg, iv measured for 24 hrs by LC-MS/MS analysis; assay type: ADME, organism-based; conditions: in vivo
[31] = tested on: Rattus norvegicus; assay: Antimigraine activity against electrical stimulation of trigeminal ganglion migraine Wistar rat model assessed as reduction in c-Fos-positive cells at 10 ug/kg, po measured after 60 mins by confocal fluorescence microscopic analysis; assay type: functional, organism-based; conditions: dose 10.0 µg/kg
[32] = biological target: T2, 5-hydroxytryptamine receptor 1F; assay: Binding affinity to human 5HT1F receptor
[33] = organism: Homo sapiens; assay: Selectivity ratio of IC50 for human 5HT3 receptor to IC50 for human 5HT1F receptor

Q: With CN1CCC(=C(F)c2cccc(NC(=O)c3c(F)cc(F)cc3F)n2)CC1 as the compound, how does the Cmax [1] read?
A: 110 ng/mL

Q: And the Activity [2]?
A: Active

Q: What about the Ratio EC50 [3] of the same compound?
A: 4

Q: What about the NOAEL at 672 h [4] of the same compound?
A: 50 mg/kg/day

Q: What about the AUC(0-t) at 24 h [5] of the same compound?
A: 5290 ng·h/mL

Q: What about the Activity [6] of the same compound?
A: Non-Toxic

Q: And the IC50 [7]?
A: 2160 nM

Q: What about the Cmax [8] of the same compound?
A: 764 ng/mL

Q: And the IC50 [9]?
A: 4870 nM

Q: And the Activity [10]?
A: Non-Toxic

Q: And the Cmax [11]?
A: 3410 ng/mL

Q: What about the EC50 [12] of the same compound?
A: 19.6 nM

Q: And the Cmax [13]?
A: 3630 ng/mL

Q: What about the AUC(0-t) at 24 h [14] of the same compound?
A: 67400 ng·h/mL

Q: And the Ratio IC50 [15]?
A: > 10000

Q: And the IC50 [16]?
A: 7060 nM

Q: What about the Ratio IC50 [17] of the same compound?
A: > 10000

Q: What about the Cmax [18] of the same compound?
A: 523 ng/mL

Q: What about the bioavailability [19] of the same compound?
A: 64%

Q: What about the Ratio IC50 [20] of the same compound?
A: > 10000

Q: What about the Cmax [21] of the same compound?
A: 88 ng/mL

Q: And the AUC(0-t) at 24 h [22]?
A: 128 ng·h/mL

Q: And the Vd [23]?
A: 12.8 L/kg

Q: What about the Ratio IC50 [24] of the same compound?
A: > 10000

Q: What about the Ratio IC50 [25] of the same compound?
A: 472

Q: And the AUC(0-t) at 24 h [26]?
A: 3200 ng·h/mL

Q: And the half-life [27]?
A: 2.95 h

Q: And the Cmax [28]?
A: 841 ng/mL

Q: What about the AUC(0-t) at 24 h [29] of the same compound?
A: 404 ng·h/mL

Q: What about the half-life [30] of the same compound?
A: 1.33 h

Q: What about the Activity [31] of the same compound?
A: Active

Q: What about the IC50 [32] of the same compound?
A: 0.32 nM

Q: And the Ratio IC50 [33]?
A: > 10000
